Results as given in PMC4774972, “Activity and Predicted Nephrotoxicity of Synthetic Antibiotics Based on Polymyxin B” (Journal of Medicinal Chemistry, 2016).
Values after ≈ are worked out from the molar mass of the structure shown. Where two headings read alike, the source gives them in different places. Bridge positions count the residues as written; N and C are the ends. Square brackets hold non-standard residues; d marks the D form. Peptide text beside a SMILES is read from it. * marks the point of attachment. Phe(4-NH2) = Nc1ccc(C[C@H](N)C(=O)O)cc1; dDab = NCC[C@@H](N)C(=O)O; Octanoyl = CCCCCCCC(=O)*; Dab = NCC[C@H](N)C(=O)O

Columns and labels:
[1] = test system: K. pneumoniae CI Koprana 100650661:1, PmxR; experiment: microbe, parasite or virus in culture; assay type: cell-based, Klebsiella pneumoniae; conditions: carbapenem & polymyxin resistant clinical isolate; MHB, 5 × 10^5 CFU/mL, 18 h at 37 °C
Description: (§1) Bacteria were either obtained from American Type Culture Collection (ATCC; Manassas, VA, USA) or independent academic clinical isolate collections, as listed in Table S2. Bacteria were cultured in nutrient broth (NB; Bacto Laboratories, catalog no. 234000) or Muller Hinton broth (MHB; Bacto Laboratories, catalog no. 211443) at 37 °C overnight with shaking (∼180 rpm). A sample of each culture was then diluted 50-fold in fresh MHB and incubated at 37 °C for 1.5–3 h with shaking (∼180 rpm). Compound stock solutions were prepared as 0.64 or 2.56 mg/mL in water. The compounds, at twice the final desired concentration, were serially diluted 2-fold across the wells of 96-well plates (Polystyrene, Corning, catalogue No. 3370). Mid log phase bacterial cultures (after 1.5–3 h incubation) were diluted to a final concentration of 5 × 10^5 colony forming units (CFU)/mL, and 50 μL was added to each well giving a final compound concentration range of 32 μg/mL to 0.015 μg/mL (128–0.06 μg/mL for colistin and polymyxin B against the polymyxin resistant clinical isolates). MICs were determined visually after 18 h of incubation at 37 °C, with the MIC defined as the lowest compound concentration at which no bacterial growth was visible.
(§2) Table S2. Bacterial strains used for Minimum Inhibitory Concentration (MIC) […]
(§3) Organism Strain Strain description Strain Source
(§4) Escherichia coli ATCC 25922 FDA strain Seattle 1946 ATCC
(§5) Klebsiella pneumoniae ATCC 13883 Control strain ATCC
(§6) Klebsiella pneumoniae ATCC 700603 Multi-drug resistant ATCC
(§7) Klebsiella pneumoniae BAA-2146 Metallo-beta-lactamase- ATCC
(§8) Acinetobacter baumannii ATCC 19606 Type strain ATCC
(§9) Pseudomonas aeruginosa ATCC 27853 Type strain ATCC
(§10) Pseudomonas aeruginosa FADDI-PA070 Clinical isolate, Nation and Li labs, polymyxin resistant Monash University
(§11) Clinical isolate, Wang Hengzhuang, Pseudomonas aeruginosa PA9704 polymyxin resistant University Hospital of […]
(§12) Ptyela Clinical isolate, Ilias Karaiskos and Acinetobacter baumannii Carbapenem & Helen Giamarellou
(§13) Clinical isolate, Medicine, Hygeia
(§14) Klebsiella pneumoniae Koprana Carbapenem, & General Hospital, […]
(§15) Clinical isolate, (Instituto Dante […]
(§16) polymyxin resistant Cardiologia, São […]

[2] = test system: K. pneumoniae CI 138-16357-20362, PmxR; experiment: microbe, parasite or virus in culture; assay type: cell-based, Klebsiella pneumoniae; conditions: carbapenem & polymyxin resistant clinical isolate; MHB, 5 × 10^5 CFU/mL, 18 h at 37 °C
Description: as §1, §2, §3, §4, §5, §6, §7, §8, §9, §10, §11, §12, §13, §14, §15, §16

A. baumannii ATCC 19606 = conditions: MIC A. baumannii ATCC 19606 (µg/mL)
K. pneumoniae ATCC 13883 = conditions: MIC K. pneumoniae ATCC 13883 (µg/mL)
[3] = test system: A. baumannii CI Ptyela 100734512:2, PmxR; conditions: MIC A. baumannii CI Ptyela 100734512:2, PmxR (µg/mL)
[4] = test system: K. pneumoniae CI Koprana 100650661:1, PmxR; conditions: MIC K. pneumoniae CI Koprana 100650661:1, PmxR (µg/mL)
[5] = test system: K. pneumoniae CI 138-16357-20362, PmxR; conditions: MIC K. pneumoniae CI 138-16357-20362, PmxR (µg/mL)
[6] = test system: P. aeruginosa PA9704, PmxR; conditions: MIC P. aeruginosa PA9704, PmxR (µg/mL)
[7] = test system: S. aureus ATCC 25923, MSSA; conditions: MIC S. aureus ATCC 25923, MSSA (µg/mL)
[8] = test system: P. aeruginosa FADDI-PA070, PmxR; conditions: MIC P. aeruginosa FADDI-PA070, PmxR (µg/mL)
HepG2 = conditions: CC50 HepG2 (µM)
[9] = test system: S. aureus ATCC 25923, MSSA; experiment: microbe, parasite or virus in culture; assay type: cell-based, Staphylococcus aureus
Description: as §1, §2, §3, §4, §5, §6, §7, §8, §9, §10, §11, §12, §13, §14, §15, §16

[10] = test system: A. baumannii CI Ptyela 100734512:2, PmxR; experiment: microbe, parasite or virus in culture; assay type: cell-based, Acinetobacter baumannii; conditions: carbapenem & polymyxin resistant clinical isolate; MHB, 5 × 10^5 CFU/mL, 18 h at 37 °C
Description: as §1, §2, §3, §4, §5, §6, §7, §8, §9, §10, §11, §12, §13, §14, §15, §16

HepG2 cells = experiment: Cytotoxicity assay (resazurin assay); assay type: cell-based, human; conditions: 4000 cells/well, 24 h incubation with compound, fluorescence 560/590
Description: Cytotoxicity to HEK293 and HepG2 cells was determined using the resazurin assay.[67],[68] […] Compounds were then added into each well. After 24 h incubation, 5 μM resazurin was added per well and incubated at 37 °C for 2 h. Fluorescence intensity was then read using a Polarstar Omega with excitation/emission 560/590. The data were then analyzed using GraphPad Prism 6 software. CC50 values were determined using GraphPad Prism 6 software (Inc. La Jolla, CA).

SMILES | MIC K. pneumoniae CI Koprana 100650661:1, PmxR [1] | MIC K. pneumoniae CI 138-16357-20362, PmxR [2] | MIC (A. baumannii ATCC 19606) | MIC (K. pneumoniae ATCC 13883) | MIC [3] | MIC [4] | MIC [5] | MIC [6] | MIC [7] | MIC [8] | CC50 (HepG2) | MIC S. aureus ATCC 25923, MSSA ([9]; ATCC 25923, 18 h) | MIC A. baumannii CI Ptyela 100734512:2, PmxR [10] | HepG2 - CC50 (HepG2 cells) | MIC ([9]; Staphylococcus aureus, 18 h, read-out: MIC S. aureus ATCC 25923, MSSA)
CCCCCCCC(=O)N[C@@H](CCN)C(=O)N[C@H](C(=O)N[C@@H](CCN)C(=O)N[C@H]1CCNC(=O)[C@H]([C@@H](C)O)NC(=O)[C@H](Cc2ccc(N)cc2)NC(=O)[C@H](CCN)NC(=O)[C@H](CC(C)C)NC(=O)[C@@H](Cc2ccccc2)NC(=O)[C@H](CCN)NC1=O)[C@@H](C)O [Compound 20] (Octanoyl-[Dab]T[Dab][Dab][Dab][dF]L[Dab][Phe(4-NH2)]T; lactam 4-C) | >32 µg/mL | >32 µg/mL | > 32 µg/mL | > 32 µg/mL | > 32 µg/mL | > 32 µg/mL | > 32 µg/mL | > 32 µg/mL | > 32 µg/mL | > 32 µg/mL | > 300 µM | – | – | – | –
CCCCCCCC(=O)N[C@@H](CCN)C(=O)N[C@H](C(=O)N[C@@H](CCN)C(=O)N[C@H]1CCNC(=O)[C@H]([C@@H](C)O)NC(=O)[C@H](CCN)NC(=O)[C@H](CCN)NC(=O)[C@H](CC(C)C)NC(=O)[C@@H](Cc2ccccc2)NC(=O)[C@H](CCCNC(=N)N)NC1=O)[C@@H](C)O [Compound 35] (Octanoyl-[Dab]T[Dab][Dab]R[dF]L[Dab][Dab]T; lactam 4-C) | >32 µg/mL | >32 µg/mL | > 32 µg/mL | > 32 µg/mL | > 32 µg/mL | > 32 µg/mL | > 32 µg/mL | > 32 µg/mL | > 32 µg/mL | > 32 µg/mL | > 300 µM | – | – | – | –
CCCCCCCC(=O)N[C@@H](CCN)C(=O)N[C@H](C(=O)N[C@H](CCN)C(=O)N[C@H]1CCNC(=O)[C@H]([C@@H](C)O)NC(=O)[C@H](CCN)NC(=O)[C@H](CCN)NC(=O)[C@H](CC(C)C)NC(=O)[C@@H](Cc2ccccc2)NC(=O)[C@H](CCN)NC1=O)[C@@H](C)O [Compound 36] (Octanoyl-[Dab]T[dDab][Dab][Dab][dF]L[Dab][Dab]T; lactam 4-C) | >32 µg/mL | >32 µg/mL | – | – | > 32 µg/mL | > 32 µg/mL | > 32 µg/mL | – | > 32 µg/mL | > 32 µg/mL | > 300 µM | >32 µg/mL | >32 µg/mL | >300 µM | –
CCCCCCCC(=O)NCC(=O)N[C@@H](CCN)C(=O)N[C@H](C(=O)N[C@H]1CCNC(=O)[C@H]([C@@H](C)O)NC(=O)[C@H](CCN)NC(=O)[C@H](CCN)NC(=O)[C@H](CC(C)C)NC(=O)[C@@H](Cc2ccccc2)NC(=O)[C@H](CCN)NC1=O)[C@@H](C)O [Compound 41] (Octanoyl-G[Dab]T[Dab][Dab][dF]L[Dab][Dab]T; lactam 4-C) | >32 µg/mL | >32 µg/mL | > 32 µg/mL | – | > 32 µg/mL | > 32 µg/mL | > 32 µg/mL | > 32 µg/mL | > 32 µg/mL | > 32 µg/mL | > 300 µM | – | – | – | –
CN[C@@H](CC(C)C)C(=O)N[C@H]1C(=O)N[C@@H](CC(N)=O)C(=O)N[C@H]2C(=O)N[C@H]3C(=O)N[C@H](C(=O)N[C@@H](C(=O)O)c4cc(O)cc(O)c4-c4cc3ccc4O)[C@H](O)c3ccc(c(Cl)c3)Oc3cc2cc(c3O[C@H]2O[C@@H](CO)[C@H](O)[C@@H](O)[C@@H]2O[C@@H]2C[C@@](C)(N)[C@@H](O)[C@@H](C)O2)Oc2ccc(cc2Cl)[C@H]1O [Vancomycin, reference compound] | – | – | – | – | – | – | – | – | – | – | – | – | – | >300 µM | 2 µg/mL (≈ 1.38 µM)
